Experimental data taken from patent US20050053625A1, “Method of treating viral infections” (priority 2001, published 2005).

Key:
glucosidase [1] = conditions: cited from earlier work
[2] = rat, in vivo
Description: Based upon the toxicology data obtained from a 14 day rat study on N-nonyl-DNJ, the toxicity with the alkovirs is predicated to be minimal. With N-nonyl-DNJ, toxicity primarily consisted of GI upset as a result of inhibiting the gut α-glucosidase enzymes involved in carbohydrate digestion. It should be noted that even though toxicity was observed, the maximum tolerated dose was determined to be 250 mg/kg bid. This was well above the amount required to achieve serum drug concentrations that were anti-viral.

2.2.15 cells = experiment: Selectivity index (CC90/IC90), MHBs secretion and MTT on 2.2.15 cells; assay type: cell-based
Text: Selectivity index and cytotoxicity assessment. The concentration of compound needed to reduce the amount of MHBs present in the culture medium (of MHBs producing cells) by 90%, relative to untreated or placebo treated controls will be considered to be the IC90 (inhibitory concentration, 90). The toxicity of the compounds to the tissue cultures will initially be determined the MTT assay, as described in (Lu et al., 1997). Briefly, the amount of MTT enzyme functional in the same sets of cells used for determination of the ability of a compound to reduce the secretion of MHBs (see above) will be measured. Thus, the impact of a compound upon cell viability will be assessed in the same cells in which MHBs reductions have been determined. The concentration of compound that results in a reduction of MTT activity (compared to untreated cultures) of 90% will be considered to be the CC90. The selectivity index will be expressed as the CC90 divided by the IC90. Using these criteria, as determined by assays on 2.2.15 cells under the conditions described in prelim. evidence, the selectivity index of NNDNJ is approximate 100. Thus, compounds will be considered attractive if they have a selectivity index of greater than 100.

liver cells = conditions: cited from earlier work
[3] = parameters: species or system dogs; conditions: dog, in vivo
Description: Determination of the best glucosidase inhibitor and analysis of glucosidase inhibition. Although our work, confirmed by others, has shown that efficient secretion of the HBV glycoprotein MHBs and LHBs requires the function of the ER glucosidase, the specific glucosidase inhibitor that would be most sensible to use in vivo studies is not entirely obvious. […] However, NNDNJ has a dose limiting toxicity in dogs. Although this occurred at very high doses (more than 250 mg/kg), and we believe the toxicity was unrelated to the glucosidase inhibition mechanism), it seems wise to explore the possibility of alternative glucosidase inhibitors for the proposed study. Thus, Aim 1 will be to explore the possibility that other compounds, with less toxicity can be found. […] It is therefore an attractive back up compound. Thus, although NNDNJ could be used in the proposed studies as a “stalking horse” and for a proof of concept, it will be “parked” (held in reserve) as we test other glucosidase inhibitors in our portfolio. Identification of the most appropriate glucosidase inhibitor

HBV M protein = assay type: cell-based
Description: Hep G2 cells were transfected with an M only expression vector and the next day the cells divided equally into 6 well trays. Compound was added one day latter at the indicated concentrations and the media changed every two days. The presence of sub-viral particles in the medium was detected via the Abbott Diagnostics Auszyme Monoclonal Diagnostic Kit as per manufacture's directions. For Graph: Y-axis is the OD at 492. X-axis indicates the compounds or cells used in the assay.
Hep G2 cells transfected with the HBV M expression vector were treated with the glucosidase inhibitor NB-DNJ (4.5 mM and 6 days latter the amount of M protein associated with the culture medium (secreted) and the cells (retained) determined by ELISA. See text for more details. For graph: x-axis, Drug treatment and location of protein; for y-axis, % of HBV M protein as compared to untreated
Hep G2 cells were transfected with the M only expression vector and seeded as daughter flasks into 6 well trays. Following 4 days of treatment of glucosidase inhibitor (NB-DNJ (4.5 mM)), drug was either removed (in samples labels as —R) or left on as a control. Day 0 is the time in which drug was removed. […] Day 3 and Day 5 are days after drug removal. For Graph: Y-axis is the OD at 492. X-axis indicates the compounds or cells used in the assay. UN=untreated sample; Un-R is the untreated rebound sample; NB=N-butyl-DNJ; NB-R=N-butyl-DNJ rebound sample.
HBV M protein secretion is sensitive to glucosidase inhibition. Our previous work has determined that the secretion of HBV sub-viral particles containing the M protein was sensitive to glucosidase inhibition. (Mehta et al., 1997). That is, when Hep G2 2.215 cells were treated with the glucosidase inhibitor NB-DNJ, purified sub-viral particles appeared to lack the M protein. However, it was unclear if this was the result of the M protein's sensitivity to glucosidase inhibition or required some other viral factor. To test this hypothesis, an expression vector (pCMV-MS^−X) directs the expression of HBV M, but no other viral protein, was created. This “M only” expression vector was then used to determine if the M protein itself, in the absence of other viral functions, was sensitive to glucosidase inhibition. In addition, an expression vector, unable to express “M”, but able to express “S” was made on the same plasmid backbone as the “M” only vector, as was used as a control (pCMV-M^−SX). For these studies three imino sugars were used: N-butyl-DNJ, N-nonyl-DNJ and N-nonyl-DGJ. N-butyl-DNJ is our standard glucosidase inhibitor and has been used by several labs for over 10 years (Carlson et al.,1995, Block et al., 1994). […] Briefly, Hep G2 cells were transfected with the expression vectors pCMV HBV MS^−X and pCMV HBV M^−SX and subsequently seeded into fresh 6 well trays. The transfected cells were treated with the indicated concentrations of NB-DNJ, NN-DNJ or NN-DGJ (as a negative control) and three days latter the media analyzed for the presence of the HBV M or HBV S protein as described in Mehta et al, 2001. […] Fore example, concentrations of NN-DNJ which have no impact upon glycan inhibition, as determined by glycan analysis or α-1-acid-glycoprotein secretion, had no effect upon HBV M protein secretion (data not shown). In contrast to the effect of the glucosidase inhibitors on M protein secretion, the secretion of the HBV S protein was insensitive to either NB-DNJ or NN-DNJ providing further proof that the S protein is insensitive to glucosidase inhibition (data not shown; Block et al., 1994, Mehta et al., 1997, Werr & Prange, 1998). To determine if the secretion of the HBV M protein was prevented by another non-glucosidase mechanism, other compounds with the same alkyl side chain (tail) but altered imino sugar head groups, were synthesized. For example, NN-DGJ has the same chain length as NN-DNJ but is not a glucosidase inhibitor. […]

glucosidase [4] = experiment: Glucosidase / glycan processing inhibition in cells; assay type: cell-based; conditions: 10 μg/ml

CCCCCCCCCN1C[C@H](O)[C@@H](O)[C@H](O)[C@H]1CO [NN-DNJ, 1,5-dideoxy-1,5-nonylylimino-D-glucitol]
inhibit glucosidase (glucosidase [1]): 15-20% | maximum tolerated dose [2]: 250 mg/kg bid | toxicity observed [2]: GI upset | selectivity index (CC90 divided by IC90) (2.2.15 cells): ~100 | uptake by liver cells (liver cells): preferentially taken up by liver cells | dose at which dose limiting toxicity occurred [3]: more than 250 mg/kg | amount of M protein in the culture medium (HBV M protein; 10 μg/ml): almost undetectable levels | HBV M protein secretion at concentrations with no impact upon glycan inhibition (HBV M protein; concentrations which have no impact upon glycan inhibition, data not shown): no effect | secretion of the M protein (HBV M protein; indicated concentrations, three days, FIG. 4): prevented the secretion of the M protein | inhibits glycan processing (glucosidase [4]): 15-20%
